Broadly, the IC50 is the concentration needed to halve the response being measured.

The source of these data is patent US8022206B2 (OSI Pharmaceuticals, LLC, priority 2008, dated 2011).

One test deals with MET (human) (Homo sapiens, UniProt P08581). The test can be described thus: MET (human) AlphaScreen kinase assay, Km of ATP. Conditions: AlphaScreen, Km of ATP; read-out: Met biochemical IC50. Format: biochemical. The procedure, abridged:
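Human MET at lot-optimised concentration in 50 mM Tris pH 7.4 buffer with 1 mM DTT, compound at 1% DMSO final; enzyme starts the reaction, 60 min at RT.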

The target of another test is RON (human) (Homo sapiens, UniProt Q04912). Description: RON (human) AlphaScreen kinase assay, Km of ATP. The format is biochemical. The conditions noted are these: AlphaScreen, Km of ATP; read-out: RON biochemical IC50. The procedure, abridged: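 Detection used PT66 AlphaScreen beads added in Tris pH 7.5/NaCl/EDTA/BSA buffer, read after 1 h incubation. Vehicle-only DMSO wells served as controls.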
A general note: Alpha assays give light when donor and acceptor beads are brought close together.

The structures appear in SMILES notation.

Chain of MET (human) (P08581 25-1390): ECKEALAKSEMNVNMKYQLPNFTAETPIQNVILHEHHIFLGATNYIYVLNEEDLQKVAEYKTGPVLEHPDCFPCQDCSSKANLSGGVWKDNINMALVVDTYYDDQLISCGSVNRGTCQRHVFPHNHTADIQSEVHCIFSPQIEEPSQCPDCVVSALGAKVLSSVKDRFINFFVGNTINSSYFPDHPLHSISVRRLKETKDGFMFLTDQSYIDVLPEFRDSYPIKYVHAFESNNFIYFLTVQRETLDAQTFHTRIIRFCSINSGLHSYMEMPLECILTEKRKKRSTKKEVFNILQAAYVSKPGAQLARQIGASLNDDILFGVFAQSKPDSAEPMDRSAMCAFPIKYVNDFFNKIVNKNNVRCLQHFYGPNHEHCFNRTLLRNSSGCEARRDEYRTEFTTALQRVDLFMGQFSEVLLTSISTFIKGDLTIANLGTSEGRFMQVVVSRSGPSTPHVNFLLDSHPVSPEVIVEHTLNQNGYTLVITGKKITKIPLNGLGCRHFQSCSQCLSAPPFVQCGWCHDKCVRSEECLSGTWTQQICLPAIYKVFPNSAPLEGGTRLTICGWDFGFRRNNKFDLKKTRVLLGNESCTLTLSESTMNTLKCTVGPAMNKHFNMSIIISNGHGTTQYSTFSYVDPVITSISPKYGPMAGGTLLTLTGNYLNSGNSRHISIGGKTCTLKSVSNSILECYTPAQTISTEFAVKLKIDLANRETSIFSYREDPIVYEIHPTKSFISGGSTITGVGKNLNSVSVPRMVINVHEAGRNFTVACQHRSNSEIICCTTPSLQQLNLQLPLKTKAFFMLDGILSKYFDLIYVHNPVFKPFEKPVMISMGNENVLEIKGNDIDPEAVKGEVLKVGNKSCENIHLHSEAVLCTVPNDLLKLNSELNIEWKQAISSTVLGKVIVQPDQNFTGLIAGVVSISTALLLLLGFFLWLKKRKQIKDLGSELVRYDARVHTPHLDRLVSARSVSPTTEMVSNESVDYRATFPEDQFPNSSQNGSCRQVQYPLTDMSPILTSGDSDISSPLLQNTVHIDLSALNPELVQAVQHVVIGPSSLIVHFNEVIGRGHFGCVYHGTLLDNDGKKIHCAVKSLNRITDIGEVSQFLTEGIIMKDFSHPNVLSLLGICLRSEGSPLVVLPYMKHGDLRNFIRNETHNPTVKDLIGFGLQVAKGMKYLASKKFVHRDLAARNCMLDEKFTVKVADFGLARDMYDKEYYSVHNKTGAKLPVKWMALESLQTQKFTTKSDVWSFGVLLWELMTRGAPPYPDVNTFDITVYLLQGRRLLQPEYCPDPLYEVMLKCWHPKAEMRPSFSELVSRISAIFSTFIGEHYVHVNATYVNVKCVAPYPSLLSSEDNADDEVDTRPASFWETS
Chain of RON (human) (Q04912 25-1400): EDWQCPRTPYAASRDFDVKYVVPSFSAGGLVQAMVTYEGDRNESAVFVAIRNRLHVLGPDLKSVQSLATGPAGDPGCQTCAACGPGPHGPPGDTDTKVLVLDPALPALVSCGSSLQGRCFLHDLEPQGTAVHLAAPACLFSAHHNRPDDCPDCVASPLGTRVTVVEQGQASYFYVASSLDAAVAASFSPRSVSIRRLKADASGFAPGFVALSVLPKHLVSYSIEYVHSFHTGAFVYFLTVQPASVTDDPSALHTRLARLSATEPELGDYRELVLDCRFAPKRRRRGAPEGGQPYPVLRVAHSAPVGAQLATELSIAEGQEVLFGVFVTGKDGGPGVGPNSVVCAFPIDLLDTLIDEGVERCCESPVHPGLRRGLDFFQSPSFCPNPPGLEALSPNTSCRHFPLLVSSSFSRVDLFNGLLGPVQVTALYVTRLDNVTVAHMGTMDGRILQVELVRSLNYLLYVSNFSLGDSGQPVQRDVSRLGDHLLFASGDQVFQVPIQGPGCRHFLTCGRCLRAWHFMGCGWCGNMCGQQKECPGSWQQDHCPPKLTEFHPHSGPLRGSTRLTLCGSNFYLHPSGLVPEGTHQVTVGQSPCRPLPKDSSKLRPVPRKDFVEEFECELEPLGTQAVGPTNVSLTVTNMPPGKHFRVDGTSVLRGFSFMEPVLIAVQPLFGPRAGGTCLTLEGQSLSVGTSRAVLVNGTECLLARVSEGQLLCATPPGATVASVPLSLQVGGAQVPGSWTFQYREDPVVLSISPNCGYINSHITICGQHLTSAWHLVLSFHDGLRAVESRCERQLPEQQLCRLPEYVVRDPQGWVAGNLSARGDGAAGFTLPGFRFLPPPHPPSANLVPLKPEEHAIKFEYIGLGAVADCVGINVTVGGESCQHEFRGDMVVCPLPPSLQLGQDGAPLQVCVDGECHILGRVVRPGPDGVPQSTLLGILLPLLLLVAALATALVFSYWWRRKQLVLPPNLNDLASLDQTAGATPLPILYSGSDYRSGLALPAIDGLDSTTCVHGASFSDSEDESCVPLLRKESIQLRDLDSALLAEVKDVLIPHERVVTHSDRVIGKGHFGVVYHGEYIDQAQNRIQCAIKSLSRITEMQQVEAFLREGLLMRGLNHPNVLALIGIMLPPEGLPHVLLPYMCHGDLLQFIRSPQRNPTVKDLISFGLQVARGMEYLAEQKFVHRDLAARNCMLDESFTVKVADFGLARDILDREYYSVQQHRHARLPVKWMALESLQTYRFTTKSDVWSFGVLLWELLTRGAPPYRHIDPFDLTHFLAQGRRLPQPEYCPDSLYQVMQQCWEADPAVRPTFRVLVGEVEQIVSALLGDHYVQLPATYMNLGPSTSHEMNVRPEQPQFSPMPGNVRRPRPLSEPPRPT

Consider `C[C@@H](Oc1c(N)ncc2c(-c3cnn(C4CCNCC4)c3)c(C#CCCO)oc12)c1c(Cl)ccc(F)c1Cl` [Example 172, 4-[6-Amino-7-[(R)-1-(2,6-dichloro-3-fluorophenyl)ethoxy]-3-(1-piperidin-4-yl-1H-pyrazol-4-yl)-furo[3,2-c]pyridin-2-yl]-but-3-yn-1-ol], for which the IC50 at MET (human) and at RON (human) was under 0.5 µM each time.
On to `Cc1cccc(Cl)c1C(C)Oc1c(N)ncc2c(-c3cnn(C4CCNCC4)c3)coc12` (stereo not drawn) [Example 375, 7-[1-(2-Chloro-6-methylphenyl)ethoxy]-3-(1-piperidin-4-yl-1H-pyrazol-4-yl)furo[3,2-c]pyridin-6-ylamine], for which the IC50 on MET (human) was under 0.5 µM; at RON (human), 0.5 to 5 µM.
The like results for `C[C@@H](Oc1c(N)ncc2c(-c3cccc(CO)c3)coc12)c1c(Cl)ccc(F)c1Cl` [Example 57, (3-{6-Amino-7-[(R)-1-(2,6-dichloro-3-fluorophenyl)ethoxy]-furo[3,2-c]pyridin-3-yl}phenyl)methanol] were, in that order, 0.5 to 5 µM and 0.5 to 5 µM.
On the same counts, the results for `CC(Cc1ccccc1F)Oc1c(N)ncc2c(-c3cnn(C4CCNCC4)c3)coc12` (stereo not drawn) [Example 423, 7-[2-(2-Fluorophenyl)-1-methylethoxy]-3-(1-piperidin-4-yl-1H-pyrazol-4-yl)furo[3,2-c]pyridin-6-ylamine] are under 0.5 µM and 0.5 to 5 µM.
Turning to `C[C@@H](Oc1c(N)ncc2c(-c3ccc(NCCN4CCOCC4)nc3)coc12)c1c(Cl)ccc(F)c1Cl` [Example 104, 7-[(R)-1-(2,6-Dichloro-3-fluorophenyl)ethoxy]-3-[6-(2-morpholin-4-yl-ethylamino)pyridin-3-yl]furo[3,2-c]pyridin-6-ylamine], the IC50 on MET (human) is under 0.5 µM; on RON (human), 0.5 to 5 µM.
On the same counts, the results for `C[C@H](Oc1c(N)ncc2c(-c3cnn(C4CCNCC4)c3)coc12)c1ccncc1` [Example 396, 3-(1-Piperidin-4-yl-1H-pyrazol-4-yl)-7-((S)-1-pyridin-4-yl-ethoxy)furo[3,2-c]pyridin-6-ylamine] are under 0.5 µM and 0.5 to 5 µM.
On the same counts, the results for `CNc1ncc2c(C3=CCN(C)CC3)coc2c1O[C@H](C)c1c(Cl)ccc(F)c1Cl` [Example 36, [7-[(R)-1-(2,6-Dichloro-3-fluorophenyl)-ethoxy]-3-(1-methyl-1,2,3,6-tetrahydropyridin-4-yl)-furo[3,2-c]pyridin-6-yl]-methylamine] are under 0.5 µM and under 0.5 µM.
On the same counts, the results for `C[C@@H](Oc1c(N)ncc2c(-c3cccc(C(=O)NCCN4CCCC4)c3)coc12)c1c(Cl)ccc(F)c1Cl` [Example 102, 3-{6-Amino-7-[(R)-1-(2,6-dichloro-3-fluorophenyl)ethoxy]-furo[3,2-c]pyridin-3-yl}-N-(2-pyrrolidin-1-ylethyl)benzamide] are under 0.5 µM and 0.5 to 5 µM.
As for `C[C@@H](Oc1c(N)ncc2c(-c3ccc(C(=O)NCC(C)(C)CN(C)C)cc3)coc12)c1c(Cl)ccc(F)c1Cl` [Example 298, 4-{6-Amino-7-[(R)-1-(2,6-dichloro-3-fluorophenyl)ethoxy]furo[3,2-c]pyridin-3-yl}-N-(3-dimethylamino-2,2-dimethylpropyl)benzamide], the IC50 is under 0.5 µM at MET (human) and 0.5 to 5 µM on RON (human).
The like results for `C[C@@H](Oc1c(N)ncc2c(-c3ccc(C(=O)N4CCN(CC(=O)N(C)C)CC4)cc3)coc12)c1c(Cl)ccc(F)c1Cl` [Example 300, 2-[4-(4-{6-Amino-7-[(R)-1-(2,6-dichloro-3-fluorophenyl)ethoxy]furo[3,2-c]pyridin-3-yl}benzoyl)piperazin-1-yl]-N,N-dimethylacetamide] were, in that order, 0.5 to 5 µM and 0.5 to 5 µM.
`C[C@@H](Oc1c(N)ncc2c(-c3ccc(CN(C)C)cc3)coc12)c1c(Cl)ccc(F)c1Cl` [Example 105, 7-[(R)-1-(2,6-Dichloro-3-fluorophenyl)ethoxy]-3-(4-dimethylaminomethylphenyl)-furo[3,2-c]pyridin-6-ylamine]: the IC50 at MET (human) was under 0.5 µM; at RON (human), 0.5 to 5 µM.
With `C[C@H](N)C(=O)N1CC=C(c2coc3c(O[C@H](C)c4c(Cl)ccc(F)c4Cl)c(N)ncc23)CC1` [Example 251, (2S)-2-Amino-1-[4-{6-amino-7-[(1R)-1-(2,6-dichloro-3-fluoro-phenyl)ethoxy]furo[3,2-c]pyridin-3-yl}-3,6-dihydropyridin-1(2H)-yl]propan-1-one], the IC50 at MET (human) and on RON (human) was under 0.5 µM each time.
On to `C[C@@H](Oc1c(N)ncc2c(-c3ccc(N4CCN(C)CC4)cc3)coc12)c1c(Cl)ccc(F)c1Cl` [Example 86, 7-[(R)-1-(2,6-Dichloro-3-fluor-phenyl)ethoxy]-3-[4-(4-methylpiperazin-1-yl)-phenyl]furo[3,2-c]pyridin-6-ylamine], for which the IC50 on MET (human) and at RON (human) was under 0.5 µM in each case.
Turning to `CC(Cc1c(F)cccc1Cl)Oc1c(N)ncc2c(-c3cnn(C4CCNCC4)c3)coc12` (stereo not drawn) [Example 419, 7-[2-(2-Chloro-6-fluorophenyl)-1-methylethoxy]-3-(1-piperidin-4-yl-1H-pyrazol-4-yl)furo[3,2-c]pyridin-6-ylamine], the IC50 on MET (human) and at RON (human) was 0.5 to 5 µM in each case.
`Cc1ccc(-c2coc3c(O[C@H](C)c4c(Cl)ccc(F)c4Cl)c(N)ncc23)o1` [Example 117]: the IC50 at MET (human) and on RON (human) was 0.5 to 5 µM each time.
Take `C[C@@H](Oc1c(N)ncc2c(-c3ccn4ccnc4c3)coc12)c1c(Cl)ccc(F)c1Cl` [Example 82, 7-[(R)-1-(2,6-Dichloro-3-fluorophenyl)ethoxy]-3-imidazo[1,2-a]pyridin-7-ylfuro[3,2-c]pyridin-6-ylamine]: the half-inhibitory concentration (IC50) at MET (human) was under 0.5 µM; at RON (human) it was 0.5 to 5 µM.
Take `CC(Oc1c(N)ncc2c(-c3cnn(C4CCNCC4)c3)coc12)c1c(F)cccc1Cl` (stereo not drawn) [Example 401, 7-[1-(2-Chloro-6-fluorophenyl)ethoxy]-3-(1-piperidin-4-yl-1H-pyrazol-4-yl)furo[3,2-c]pyridin-6-ylamine]: the IC50 is under 0.5 µM on MET (human) and 0.5 to 5 µM at RON (human).
In the case of `C[C@@H](Oc1c(N)ncc2c(-c3ccc(CN4CCC4)s3)coc12)c1c(Cl)ccc(F)c1Cl` [Example 220, 3-(5-Azetidin-1-ylmethylthiophen-2-yl)-7-[(R)-1-(2,6-dichloro-3-fluorophenyl)ethoxy]furo[3,2-c]pyridin-6-ylamine], the IC50 at MET (human) and at RON (human) was under 0.5 µM throughout.
Turning to `C[C@@H](Oc1c(N)ncc2c(-c3ccnc(N4CCN(C)CC4)c3)coc12)c1c(Cl)ccc(F)c1Cl` [Example 89, 7-[(R)-1-(2,6-Dichloro-3-fluorophenyl)ethoxy]-3-[2-(4-methylpiperazin-1-yl)pyridin-4-yl]-furo[3,2-c]pyridin-6-ylamine], the IC50 on MET (human) and at RON (human) was under 0.5 µM in each case.
Consider `C[C@@H](Oc1c(N)ncc2c(C3=CCN(C(=O)CN(C)C)CC3)coc12)c1c(Cl)ccc(F)c1Cl` [Example 9, 1-(4-{6-Amino-7-[(R)-1-(2,6-dichloro-3-fluorophenyl)ethoxy]-furo[3,2-c]pyridin-3-yl}-3,6-dihydro-2H-pyridin-1-yl)-2-dimethylaminoethanone], for which the IC50 at MET (human) and on RON (human) was under 0.5 µM throughout.
For the molecule `C[C@@H](Oc1c(N)ncc2c(C(=O)NC3CCNCC3)coc12)c1c(Cl)ccc(F)c1Cl` [Example 182, 6-Amino-7-[(R)-1-(2,6-dichloro-3-fluorophenyl)ethoxy]furo[3,2-c]pyridine-3-carboxylic acid piperidin-4-ylamide], the values for the IC50 at MET (human) and at RON (human) were under 0.5 µM and 0.5 to 5 µM, respectively.
On the same counts, the results for `C[C@@H](Oc1c(N)ncc2c(-c3ccc(C(=O)N4CCCCC4)cc3)coc12)c1c(Cl)ccc(F)c1Cl` [Example 290, (4-{6-Amino-7-[(R)-1-(2,6-dichloro-3-fluorophenyl)ethoxy]furo[3,2-c]pyridin-3-yl}phenyl)piperidin-1-ylmethanone] are 0.5 to 5 µM and 0.5 to 5 µM.
The like results for `C[C@@H](Oc1c(N)ncc2c(-c3ccc(CN4CCOCC4)s3)coc12)c1c(Cl)ccc(F)c1Cl` [Example 291] were, in that order, 0.5 to 5 µM and 0.5 to 5 µM.
For the molecule `CC(Oc1c(N)ncc2c(C3=CCN(C(N)=O)CC3)coc12)c1c(Br)ccc(F)c1Cl` (stereo not drawn) [Example 457, 4-{6-Amino-7-[1-(6-bromo-2-chloro-3-fluorophenyl)ethoxy]furo[3,2-c]pyridin-3-yl}-3,6-dihydro-2H-pyridine-1-carboxamide], the IC50 on MET (human) was under 0.5 µM; at RON (human), 0.5 to 5 µM.
As for `Cc1oc2c(O[C@H](C)c3c(Cl)ccc(F)c3Cl)c(N)ncc2c1-c1cnn(C2CCNCC2)c1` [Example 168, 7-[(R)-1-(2,6-Dichloro-3-fluorophenyl)ethoxy]-2-methyl-3-(1-piperidin-4-yl-1H-pyrazol-4-yl)-furo[3,2-c]pyridin-6-ylamine], the IC50 on MET (human) was under 0.5 µM; on RON (human), 0.5 to 5 µM.
On the same counts, the results for `C[C@@H](Oc1c(N)ncc2c(C3=CCN(C(=O)C(C)(C)N)CC3)coc12)c1c(Cl)ccc(F)c1Cl` [Example 24, 2-Amino-1-(4-{6-amino-7-[(R)-1-(2,6-dichloro-3-fluorophenyl)-ethoxy]-furo[3,2-c]pyridin-3-yl}-3,6-dihydro-2H-pyridin-1-yl)-2-methylpropan-1-one] are under 0.5 µM and under 0.5 µM.
The like results for `C[C@@H](Oc1c(N)ncc2c(C3=CCN(C(C)(C)C)CC3)coc12)c1c(Cl)ccc(F)c1Cl` [Example 163, 3-(1-tert-Butyl-1,2,3,6-tetrahydropyridin-4-yl)-7-[(1R)-1-(2,6-dichloro-3-fluorophenyl)ethoxy]furo[3,2-c]pyridin-6-amine] were, in that order, under 0.5 µM and under 0.5 µM.
